Experimental data: patent US6555126B2, “Method for treating, controlling, and preventing Diabetes Mellitus” (Diabex, Inc., priority 1999, dated 2003)

Columns and labels:
normoglycemic rats = assay: Hypoglycemic effect of a single intraperitoneal injection in normoglycemic rats; assay type: in vivo
From the text: (§1) Preparation of Animals: For each experiment, eight (8) overnight fasted normoglycemic and diabetic rats were used. The animals were kept in the experimental animal laboratory for three days with free access to food and water.
(§2) On the day of the experiment, blood samples were collected at zero time before IP injection of the test substance (Riedel De Hein—Germany), and at intervals as given in Table 1 and 2. Blood samples were drawn from the ear vein in 100 micro millimeter heparinized capillary tubes.
(§3) Blood glucose concentrations were determined according to glucose oxidase method, using glucose enzymatic kits (Biomerioux France).
(§4) The percentage change in glycaemia was calculated.
(§5) For control animals, sterile saline solution was used instead of Linalool.
(§6) Data are expressed as means and standard error of the mean (S.E.M.) statistical analysis were performed using student's t test.

[1] = test system: Streptozocin diabetic rats; assay: Hypoglycemic effect of a single intraperitoneal injection in Streptozocin diabetic (hyperglycemic) rats; assay type: in vivo
Experimental: as §1
Hyperglycemia was induced in the diabetic group of rats by a single intraperitoneal injection of Streptozocin (Upjohn Co, Kalamazoo, Mich., USA). […] body weight-freshly dissolved in citrate phosphate buffer with pH adjusted to 4.5.
Diabetes was confirmed one week after administration of Streptozocin by determining the fasting blood glucose concentration. […] The fasting blood glucose concentration in normal rats is 90-120 mg/dl.
as §2, §3, §4, §5, §6

[2] = test system: diabetic volunteers (Diabetes Mellitus); assay: Limited clinical study in diabetic volunteers; assay type: in vivo, human; parameters: key to readings (blood glucose) / Fasting Blood Sugar: blood glucose in mg/dl
Experimental: The study was conducted with strict and continuous monitoring of all vital physical parameters of all volunteers. No clinical or biochemical side effects were observed during or after the test periods. Special attention was made while monitoring Blood Urea, Serum Creatinine, SGPT, Cholesterol, and Triglycerides.
The study involved over 200 diabetic volunteers with different types of Diabetes Mellitus and from different countries, and of both sexes. The breakdown was as follows:
Group One: Two (2) volunteers were new Diabetes Mellitus patients (Virgin cases).
These volunteers had never been treated for the disease and never taken any of the known and standard Diabetes Mellitus medications.
Started using Linalool Enteric Coated Softgels 0.45 ml 3 times daily with meals, on Feb. 22nd, 1999.
Group Two: One (1) volunteer had hyper insulinemia with readings of 400 mg/dl of glucose
The study involved over two hundred diabetic volunteers of both sexes, who had the disease from 3 to 25 years. In various lots, the volunteers were on insulin alone, insulin and hypoglycemic drugs, or hypoglycemic drugs alone. The patients took the product in the form of softgel enteric coated capsules (0.5 ml Linalool and 100 mg vitamin E) one capsule with meals three times a day. The duration of treatment was minimum three months. The product was given along with the classical hypoglycemic treatment (insulin and others). These classical hypoglycemic medications, Insulin—morning and evening, and Daonil (Glibenclamide 5 mg), Glucaphage (metformin 850 mg and other medications, were decreased gradually depending on the monitored improvements of the patient condition.

rats (Rattus rattus) = assay: LD 50 determination in rats, single subcutaneous dose; assay type: in vivo; details: one single dose subcutaneously
Experimental: 1. LD 50: For this determination, 59 rats (Rattus rattus) of both sexes were used with body weights of 200-240 grams to determine the LD50. The rats were divided into groups consisting of 5-6 rats each.
The rats were fed standard laboratory pellet diet and water ad libitum. Linalool was given as one single dose subcutaneously to rats in gradually increasing doses of 0.2 ml/kg body weight, […], 0.3 ml/kg, 0.35 ml/kg, 0.40 ml/kg, 0.45 ml/kg, 0.50 ml/kg, 0.55 ml/kg, 0.60 ml/kg, 0.65 ml/kg.
LD 50 was determined to be 0.63 ml/kg body weight.

[3] = Group Two volunteer, hyper insulinemia, June 24, 1999

Compound: insulin: short acting soluble insulin preparation, 5 units injected IP as comparator [reference compound]
- decrease in blood glucose concentration within the first 15 min (normoglycemic rats; insulin injection, called insignificant, rat group not stated): 17.1%
- decrease in blood glucose concentration after one hour (normoglycemic rats; normoglycemic rats, 5 units of insulin injected IP): 49%
- decrease in blood glucose concentration after one hour ([1]; hyperglycemic rats, 5 units of insulin injected IP): 47.1%

Compound: C=CC(C)(O)CCC=C(C)C (stereo not drawn) [Linalool, 3,7 dimethyl-1,6-octadien-3-ol]
- Change in blood glucose % at 15 min. (normoglycemic rats; Table 1, normoglycemic rats, 0.2 ml/kg single i.p. injection, 15 min): −36.1%
- Change in blood glucose % at 1 h. (normoglycemic rats; Table 1, normoglycemic rats, 0.2 ml/kg single i.p. injection): −35.2%
- Change in blood glucose % at 1 h. (normoglycemic rats; Table 2, normoglycemic rats, 0.2 ml/kg single i.p. injection, mean ± S.E.M.): −35.2 ± 6.2 %
- Change in blood glucose % at 4 h. (normoglycemic rats; Table 2, normoglycemic rats, 0.2 ml/kg single i.p. injection, 4 h, mean ± S.E.M.): −40.9 ± 8.2 %
- Change in blood glucose % at 24 h. (normoglycemic rats; Table 2, normoglycemic rats, 0.2 ml/kg single i.p. injection, 24 h, mean ± S.E.M.): −18.9 ± 4.4 %
- hypoglycemic activity within the first four hours after the administration (normoglycemic rats; first of two values, normoglycemic rats (first hour)): 33.2%
- time of highest hypoglycemic activity after the intraperitoneal injection (normoglycemic rats; normoglycemic rats): four
- decrease in blood glucose concentration within the first 15 min (normoglycemic rats; normoglycemic rats treated by Linalool): 36.1%
- hypoglycemic activity (in words) (normoglycemic rats; normoglycemic rats, i.p. injection): significant hypoglycemic activity
- readings (blood glucose) ([2]; Group Three volunteer 4, Dec. 17): 175 mg/dL
- readings (blood glucose) ([2]; Group Three volunteer 4, Dec. 24): 163
- readings (blood glucose) ([2]; Group Three volunteer 4, Jul. 26, 1999): 105 mg/dL
- clinical outcome (physician's judgement) ([2]; Group Three volunteer 4, July 14th, taken off all medication): CURED
- HbAlc Readings (lowered to) ([2]; Group Three volunteer 4, Jun. 4, 1999): 6.18%
- readings (blood glucose) ([2]; Group Three volunteer 4, Jun. 18): 109
- readings (blood glucose) ([2]; Group Three volunteer 4, Jun. 26): 105
- HbAlc Readings, starting value (lowered from) ([2]; Group Three volunteer 4, date not stated): 9.3%
- Fasting Blood Sugar ([2]; Group Three volunteer 5, diabetic over 20 years, Jul. 27, 1998): 233 mg/dL
- HbAlc [2, 3]: 7.5%
- Insulin, Fasting [2, 3]: 25.6 uU/mL
- Serum Glucose, Fasting [2, 3]: 222 mg/dL
- Serum Glucose, Fasting ([2]; Group Two volunteer, hyper insulinemia, May 17, 1999, untreated reading 197 mg/dl): 200 mg/dL
- HbAlc ([2]; Group Two volunteer, hyper insulinemia, May 17, 1999, untreated reading 8.2%): 8.1%
- Insulin, Fasting ([2]; Group Two volunteer, hyper insulinemia, May 17, 1999, untreated reading 42 uU/mL): 18.40 uU/mL
- reduction of fasting insulin level ([2]; Group Two volunteer, from 42 uU/mL to 25.6): ~50%
- Fasting Blood Sugar ([2]; volunteer 5, Aug. 17, 1998): 190
- HbAlc ([2]; volunteer 5, Aug. 17, 1998): 10.1%
- Fasting Blood Sugar ([2]; volunteer 5, Jan. 27, 1999): 167
- HbAlc ([2]; volunteer 5, Jan. 27, 1999): 7.0%
- HbAlc ([2]; volunteer 5, Jul. 27, 1998): 11.2%
- Fasting Blood Sugar ([2]; volunteer 5, Nov. 1, 1998): 114
- Fasting Blood Sugar ([2]; volunteer 5, Nov. 12, 1998): 135
- HbAlc ([2]; volunteer 5, Nov. 12, 1998): 7.5%
- Fasting Blood Sugar ([2]; volunteer 5, Sep. 17, 1998): 166
- HbAlc ([2]; volunteer 5, Sep. 17, 1998): 9.7%
- LD 50 (rats (Rattus rattus)): 0.63 ml/kg body weight
- Change in blood glucose % at 15 min. ([1]; Table 1, hyperglycemic rats, 0.2 ml/kg single i.p. injection, 15 min): −32.1%
- Change in blood glucose % at 1 h. ([1]; Table 1, hyperglycemic rats, 0.2 ml/kg single i.p. injection): −35%
- Change in blood glucose % at 1 h. ([1]; Table 2, hyperglycemic rats, 0.2 ml/kg single i.p. injection, mean ± S.E.M.): −36.4 ± 8.6 %
- Change in blood glucose % at 4 h. ([1]; Table 2, hyperglycemic rats, 0.2 ml/kg single i.p. injection, 4 h, mean ± S.E.M.): −43.7 ± 6.6 %
- Change in blood glucose % at 24 h. ([1]; Table 2, hyperglycemic rats, 0.2 ml/kg single i.p. injection, 24 h, mean ± S.E.M.): −55.8 ± 6.2 %
- time of highest hypoglycemic activity after the injection ([1]; hyperglycemic rats): 24 h
- decrease in blood glucose concentration within the first 15 min ([1]; hyperglycemic rats treated by Linalool): 32.1%
- hypoglycemic activity (in words) ([1]; hyperglycemic rats, i.p. injection): significant hypoglycemic activity
- hypoglycemic activity within the first four hours after the administration ([1]; second of two values, hyperglycemic rats (first hour)): 36.4%
